The record followed here is patent publication US20090221624A1, “4-AMINOQUINOLINE COMPOUNDS FOR TREATING VIRUS-RELATED CONDITIONS” (priority 2005, published 2009).

In data set [1] the test system is HCV replicon (Clone A cells, Huh7, subgenomic hepatits C virus RNA). As to the kind of experiment: HCV Neo screening assay (HCV replicon, NPTII ELISA). Particulars: for pEC50 / inhibition at 25 µM: Hepatitis C virus, Huh-7; for pEC50: Secondary Data, HCV; for inhibition at 25 µM: primary screening, 25 μM final concentration, 24 hours, percent inhibition of viral replication, read-out: HCV Inh; for HCV TI: therapeutic index CC50/EC50, HCV. Format: cell-based, hepatitis C virus. (In general: In antiviral work, replicon cells carry a viral genome segment that copies itself.)

The test system of another data set is RSV minigenome. Nature of the data set: RSV minigenome-dependent β-galactosidase expression assay (RSV β-Gal). The note with it: for pEC50 / inhibition at 25 µM: human respiratory syncytial virus; for pEC50: Secondary Data, RSV, read-out: RSV EC50; for inhibition at 25 µM: primary screening, 25 μM final concentration, 24 hours, percent inhibition of viral replication, read-out: RSV Inh; for RSV TI: therapeutic index CC50/EC50, RSV. Format: cell-based, respiratory syncytial virus.

Another data set concerns WNV (WN-hRuPac cells). As to the kind of experiment: WNV antiviral activity, WN-hRuPac cells, Renilla luciferase. Format: cell-based, West Nile virus. The note with it: for pEC50 / inhibition at 25 µM: West Nile virus; for pEC50: Secondary Data, WNV, read-out: WNV EC50; for inhibition at 25 µM: primary screening, 25 μM final concentration, 24 hours, percent inhibition of viral replication, read-out: WNV Inh; for WNV TI: therapeutic index CC50/EC50, WNV.

The next data set has as its system YFV (YF-hRuPac cells). As to the kind of experiment: microbe, parasite or virus in culture. It is filed as cell-based, yellow fever virus. The note with it: for inhibition at 25 µM / pEC50: Yellow fever virus; for inhibition at 25 µM: 24 h, read-out: YFV Inh; for pEC50: read-out: YFV EC50.
For another data set, the system named is DNG (D2-hRuPac cells). As to the kind of experiment: DNG antiviral activity, D2-hRuPac cells, Renilla luciferase. It is filed as cell-based, Dengue fever virus. Particulars: Dengue virus, secondary screening.
Another data set relates to EBOV minigenome. Nature of the data set: microbe, parasite or virus in culture. Format: cell-based, Ebola virus. The note with it: Zaire ebolavirus; for inhibition at 25 µM: 24 h, read-out: EBOV Inh; for pEC50: read-out: EBOV EC50.
A further data set deals with SINV (SR19-F-luc cells). As to the kind of experiment: SINV antiviral activity, SR19-F-luc cells, Firefly luciferase. Format: cell-based. Particulars: Sindbis virus; for inhibition at 25 µM: primary screening, 25 μM final concentration, 24 hours, percent inhibition of viral replication, read-out: SINV Inh; for pEC50: secondary screening, SR19-F-luc cells.

pEC50: −log10 of the molar value.

For orientation: pEC50 means −log10 of the EC50, conventionally taken in molar units. With `COC(=O)c1ccc(Nc2cc(C)nc3c(C)cccc23)cc1` [Compound 61], the pEC50 is 6.12 in data set [1]; 4.49 in the data set with RSV minigenome; 4.65 with WNV (WN-hRuPac cells); 5.00 in the data set with YFV (YF-hRuPac cells); 4.85 in the data set on DNG (D2-hRuPac cells); 4.15 in the data set with EBOV minigenome. This compound had a pEC50 in the data set on SINV (SR19-F-luc cells) of 4.76. Besides, the inhibition at 25 µM came out at 80.1% in data set [1]; 58.7% in the data set on RSV minigenome; 96.9% in the data set with WNV (WN-hRuPac cells); 97.7% with YFV (YF-hRuPac cells); 40.9% in the data set on EBOV minigenome; 37.5% in the data set with SINV (SR19-F-luc cells). Besides, the “HCV TI” value in data set [1] was found to be 61.93. Also, the “RSV TI” value in the data set with RSV minigenome amounted to 1.43. Also, in the data set on WNV (WN-hRuPac cells), the “WNV TI” value turned out to be 2.06. Besides, the “YFV TI” value with YFV (YF-hRuPac cells) came to 4.54. Also, the CC50 in “in vitro” (DNG CC50) is 45.9 µM; in “in vitro” (EBOV CC50), 45.9 µM; in “in vitro” (HCV CC50) it was 46.5 µM; in “in vitro” (RSV CC50), 45.9 µM; in “in vitro” (SINV CC50), 45.9 µM; in the data set “in vitro” (WNV CC50), 45.9 µM. The CC50 in the data set “in vitro” (YFV CC50) turned out to be 45.9 µM.
`CCCOC(=O)c1ccc(Nc2cc(C)nc3ccc(C(=O)OCC)cc23)cc1` [Compound 63]: the inhibition at 25 µM came out at 57.2% in data set [1]; 56.4% with RSV minigenome; 55% in the data set on WNV (WN-hRuPac cells); 54.2% with YFV (YF-hRuPac cells); 92% in the data set on EBOV minigenome; 53.3% in the data set with SINV (SR19-F-luc cells). The pEC50 in the data set on RSV minigenome is 4.14; in the data set on WNV (WN-hRuPac cells), 4.36; in the data set on YFV (YF-hRuPac cells) it was 4.29; in the data set on DNG (D2-hRuPac cells), 4.35; in the data set with EBOV minigenome, 5.04; in the data set with SINV (SR19-F-luc cells), not above 4.12. For the same compound, in the data set on RSV minigenome, the “RSV TI” value was found to be 0.97. For the same compound, the “WNV TI” value with WNV (WN-hRuPac cells) was found to be 1.59. Further, the “YFV TI” value in the data set with YFV (YF-hRuPac cells) was found to be 1.35. Further, the CC50 in the data set “in vitro” (DNG CC50), in “in vitro” (EBOV CC50), in “in vitro” (RSV CC50), in “in vitro” (SINV CC50), in the data set “in vitro” (WNV CC50) and in “in vitro” (YFV CC50) was 70.1 µM in each case.
`CCOC(=O)c1ccc2ncc(C(=O)OCC)c(NCCCOC(=O)C(Cl)(Cl)Cl)c2c1` [Compound 64]: the inhibition at 25 µM in data set [1] is 43.4%; with RSV minigenome, 84.9%; in the data set with WNV (WN-hRuPac cells), 37.2%; in the data set on YFV (YF-hRuPac cells), 25.8%; in the data set with EBOV minigenome it was 90.1%; with SINV (SR19-F-luc cells) it was 26.1%. Besides, the pEC50 in the data set on RSV minigenome was 4.66; in the data set on WNV (WN-hRuPac cells), 5.05; with YFV (YF-hRuPac cells), 4.34; in the data set with DNG (D2-hRuPac cells) it was 5.38; in the data set with EBOV minigenome, 4.81; with SINV (SR19-F-luc cells) it was 4.47. In addition, the “RSV TI” value in the data set with RSV minigenome amounted to 2.75. Besides, the “WNV TI” value in the data set with WNV (WN-hRuPac cells) stood at 6.8. In the data set with YFV (YF-hRuPac cells), the “YFV TI” value came to 1.32. Moreover, the CC50 in the data set “in vitro” (DNG CC50), in “in vitro” (EBOV CC50), in “in vitro” (RSV CC50), in the data set “in vitro” (SINV CC50), in the data set “in vitro” (WNV CC50) and in the data set “in vitro” (YFV CC50) was 60.5 µM throughout.
Regarding `Cc1cc(Nc2cccc(Cl)c2C)c2cccc(C)c2n1` [Compound 65], the pEC50 in data set [1] was 5.07; in the data set on RSV minigenome, 5.71; in the data set on WNV (WN-hRuPac cells), 5.24; in the data set with YFV (YF-hRuPac cells), not above 4.12; in the data set on DNG (D2-hRuPac cells), not above 4.12; with EBOV minigenome, 4.31. The pEC50 in the data set with SINV (SR19-F-luc cells) is not above 4.12. Further, the inhibition at 25 µM in data set [1] was 114%; in the data set with RSV minigenome, 96.6%; in the data set with WNV (WN-hRuPac cells) it was 80.6%; in the data set on YFV (YF-hRuPac cells), 76.3%; in the data set on EBOV minigenome, 81.8%; in the data set with SINV (SR19-F-luc cells), 72.2%. Further, the “HCV TI” value in data set [1] is 1.53. Further, the “RSV TI” value with RSV minigenome is reported as 38.46. In addition, the “WNV TI” value in the data set with WNV (WN-hRuPac cells) came to 13.11. The CC50 in the data set “in vitro” (DNG CC50) is not below 75 µM; in the data set “in vitro” (EBOV CC50), not below 75 µM; in the data set “in vitro” (HCV CC50) it was 13 µM; in “in vitro” (RSV CC50) it was not below 75 µM; in the data set “in vitro” (SINV CC50) it was not below 75 µM; in “in vitro” (WNV CC50), not below 75 µM. The compound also showed a CC50 in “in vitro” (YFV CC50) not below 75 µM.
